# Assay results as given in PMC5218480 (PLoS ONE, 2017).
# Tested on: MV-4-11 cells
# Test: Gene expression microarray analysis (Affymetrix PrimeView) and GSEA
# Type: cell-based, human
# Set-up: RFU PODN (11730768_x_at) / Fold change /veh PODN (11730768_x_at) / RFU LINC00158 (11744669_a_at) / Fold change /veh LINC00158 (11744669_a_at) / RFU DUSP10 (11751237_a_at) / Fold change /veh DUSP10 (11751237_a_at) / RFU ID3 (11757404_x_at) / Fold change /veh ID3 (11757404_x_at) / RFU PLEKHG5 (11737974_s_at) / Fold change /veh PLEKHG5 (11737974_s_at) / RFU LRRC4B (11730491_at) / Fold change /veh LRRC4B (11730491_at) / RFU GIMAP4 (11747438_a_at) / Fold change /veh GIMAP4 (11747438_a_at) / RFU KRT8 (11758183_x_at) / Fold change /veh KRT8 (11758183_x_at) / RFU CNN1 (11734310_a_at) / Fold change /veh CNN1 (11734310_a_at) / RFU VPS37D (11726825_at) / Fold change /veh VPS37D (11726825_at) / RFU C10orf10 (11716522_x_at) / Fold change /veh C10orf10 (11716522_x_at) / RFU KIR2DL2 /// KIR2DL4 /// KIR2DL5A /// KIR2DL5B /// KIR2DS1 /// KIR2DS2 /// KIR2DS3 /// KIR2DS4 /// KIR3DL3 /// KIR3DL3 /// KIR3DS1 (11738374_at) / Fold change /veh KIR2DL2 /// KIR2DL4 /// KIR2DL5A /// KIR2DL5B /// KIR2DS1 /// KIR2DS2 /// KIR2DS3 /// KIR2DS4 /// KIR3DL3 /// KIR3DL3 /// KIR3DS1 (11738374_at) / RFU C1QL1 (11718748_at) / Fold change /veh C1QL1 (11718748_at) / RFU TMPRSS4 (11747572_a_at) / Fold change /veh TMPRSS4 (11747572_a_at) / RFU HAMP (11756126_x_at) / Fold change /veh HAMP (11756126_x_at) / RFU RNFT2 (11725882_a_at) / Fold change /veh RNFT2 (11725882_a_at) / RFU NR4A2 (11747474_a_at) / Fold change /veh NR4A2 (11747474_a_at) / RFU ABCC12 (11746883_a_at) / Fold change /veh ABCC12 (11746883_a_at) / RFU TMEM136 (11760407_x_at) / Fold change /veh TMEM136 (11760407_x_at) / RFU CLDN22 /// WWC2 (11732394_at) / Fold change /veh CLDN22 /// WWC2 (11732394_at) / RFU HLA-DPB1 (11760878_x_at) / Fold change /veh HLA-DPB1 (11760878_x_at) / RFU SPINT1 (11716480_a_at) / Fold change /veh SPINT1 (11716480_a_at) / RFU GAP43 (11754022_s_at) / Fold change /veh GAP43 (11754022_s_at) / RFU A4GNT (11735810_at) / Fold change /veh A4GNT (11735810_at) / RFU PRB3 (11715151_x_at) / Fold change /veh PRB3 (11715151_x_at) / RFU TUBB4B (11761932_at) / Fold change /veh TUBB4B (11761932_at) / RFU CAPN14 (11732068_a_at) / Fold change /veh CAPN14 (11732068_a_at) / RFU TMCC2 (11721928_a_at) / Fold change /veh TMCC2 (11721928_a_at) / RFU IRGQ (11745062_a_at) / Fold change /veh IRGQ (11745062_a_at) / RFU FAM174B (11720279_a_at) / Fold change /veh FAM174B (11720279_a_at) / RFU TMPRSS4 (11748680_a_at) / Fold change /veh TMPRSS4 (11748680_a_at) / RFU FAM212B (11763350_a_at) / Fold change /veh FAM212B (11763350_a_at) / RFU PLEKHG5 (11743358_a_at) / Fold change /veh PLEKHG5 (11743358_a_at) / RFU ZSCAN30 (11745921_a_at) / Fold change /veh ZSCAN30 (11745921_a_at) / RFU CMKLR1 (11741424_a_at) / Fold change /veh CMKLR1 (11741424_a_at) / RFU LOC101060620 /// MAPK8IP1 (11723275_at) / Fold change /veh LOC101060620 /// MAPK8IP1 (11723275_at) / RFU SPTSSB (11747773_x_at) / Fold change /veh SPTSSB (11747773_x_at) / RFU PRSS12 (11739890_at) / Fold change /veh PRSS12 (11739890_at) / RFU BIN1 (11741810_x_at) / Fold change /veh BIN1 (11741810_x_at) / RFU WNT11 (11732464_a_at) / Fold change /veh WNT11 (11732464_a_at) / RFU C10orf10 (11716521_a_at) / Fold change /veh C10orf10 (11716521_a_at) / RFU C5orf56 (11738089_at) / Fold change /veh C5orf56 (11738089_at) / RFU CYB561 (11721691_x_at) / Fold change /veh CYB561 (11721691_x_at) / RFU ANKRD19P (11752326_a_at) / Fold change /veh ANKRD19P (11752326_a_at) / RFU OR2T12 /// OR2T33 /// OR2T8 (11738714_s_at) / Fold change /veh OR2T12 /// OR2T33 /// OR2T8 (11738714_s_at) / RFU VCAN (11748164_a_at) / Fold change /veh VCAN (11748164_a_at) / RFU JSRP1 (11732532_at) / Fold change /veh JSRP1 (11732532_at) / RFU KRTAP10-11 (11738290_x_at) / Fold change /veh KRTAP10-11 (11738290_x_at) / RFU MYO3A (11730013_a_at) / Fold change /veh MYO3A (11730013_a_at) / RFU EBF3 (11725865_a_at) / Fold change /veh EBF3 (11725865_a_at) / RFU CAMK2N1 (11719241_x_at) / Fold change /veh CAMK2N1 (11719241_x_at) / RFU C5orf56 (11738088_a_at) / Fold change /veh C5orf56 (11738088_a_at) / RFU OLFML3 (11715873_a_at) / Fold change /veh OLFML3 (11715873_a_at) / RFU LOC100653217 /// NTM (11731650_a_at) / Fold change /veh LOC100653217 /// NTM (11731650_a_at) / RFU MAPK11 (11762145_a_at) / Fold change /veh MAPK11 (11762145_a_at) / RFU FIZ1 (11724087_x_at) / Fold change /veh FIZ1 (11724087_x_at) / RFU OASL (11726364_x_at) / Fold change /veh OASL (11726364_x_at) / RFU SOX15 (11748057_x_at) / Fold change /veh SOX15 (11748057_x_at) / RFU CD79A (11719716_a_at) / Fold change /veh CD79A (11719716_a_at) / RFU HIST1H1D (11736915_at) / Fold change /veh HIST1H1D (11736915_at) / RFU CASKIN2 (11723855_a_at) / Fold change /veh CASKIN2 (11723855_a_at) / RFU LOC730098 (11760151_x_at) / Fold change /veh LOC730098 (11760151_x_at) / RFU OR4N2 (11742367_at) / Fold change /veh OR4N2 (11742367_at) / RFU PRRT2 (11749266_a_at) / Fold change /veh PRRT2 (11749266_a_at) / RFU SNX32 (11753110_a_at) / Fold change /veh SNX32 (11753110_a_at) / RFU CDHR5 (11726645_a_at) / Fold change /veh CDHR5 (11726645_a_at) / RFU RCAN1 (11760418_a_at) / Fold change /veh RCAN1 (11760418_a_at) / RFU FAM167A (11723789_a_at) / Fold change /veh FAM167A (11723789_a_at) / RFU FAM26E (11764081_at) / Fold change /veh FAM26E (11764081_at) / RFU ISYNA1 (11749810_s_at) / Fold change /veh ISYNA1 (11749810_s_at) / RFU ACY1 (11761880_at) / Fold change /veh ACY1 (11761880_at) / RFU 11764098_at / Fold change /veh 11764098_at / RFU SAMD14 (11745864_x_at) / Fold change /veh SAMD14 (11745864_x_at) / RFU NPB (11741838_a_at) / Fold change /veh NPB (11741838_a_at) / RFU TMPRSS6 (11731388_a_at) / Fold change /veh TMPRSS6 (11731388_a_at) / RFU KRTAP10-2 (11738614_at) / Fold change /veh KRTAP10-2 (11738614_at) / RFU ARHGAP8 /// PRR5-ARHGAP8 (11727945_x_at) / Fold change /veh ARHGAP8 /// PRR5-ARHGAP8 (11727945_x_at) / RFU KRTAP5-7 /// NADSYN1 (11734609_at) / Fold change /veh KRTAP5-7 /// NADSYN1 (11734609_at) / RFU RASL12 (11751679_a_at) / Fold change /veh RASL12 (11751679_a_at) / RFU CDKN2B (11736163_a_at) / Fold change /veh CDKN2B (11736163_a_at) / RFU PRF1 (11729649_at) / Fold change /veh PRF1 (11729649_at) / RFU, ZNF638 /// ZNF638-IT1 / Fold change vs veh, ZNF638 /// ZNF638-IT1 / RFU, PANK3 / Fold change vs veh, PANK3 / RFU, SH3YL1 / Fold change vs veh, SH3YL1 / RFU, ZEB2 / Fold change vs veh, ZEB2 / RFU, NRIP1 / Fold change vs veh, NRIP1 / RFU, PTTG1IP / Fold change vs veh, PTTG1IP / RFU, CAPN2 / Fold change vs veh, CAPN2 / RFU, MED14 / Fold change vs veh, MED14 / RFU, SNORA58 / Fold change vs veh, SNORA58 / RFU, C1orf63 / Fold change vs veh, C1orf63 / RFU, LRRFIP1 / Fold change vs veh, LRRFIP1 / RFU, NDUFAF7 / Fold change vs veh, NDUFAF7 / RFU, SLC12A2 / Fold change vs veh, SLC12A2 / RFU, IBTK / Fold change vs veh, IBTK / RFU, ESF1 / Fold change vs veh, ESF1 / Fold change vs veh, TMEM50B / RFU, TAOK1 / Fold change vs veh, TAOK1 / RFU, ACBD3 / Fold change vs veh, ACBD3 / RFU, TMA16 / Fold change vs veh, TMA16 / RFU, RWDD3 / Fold change vs veh, RWDD3 / RFU, BCAT1 / Fold change vs veh, BCAT1 / RFU, EDEM3 / Fold change vs veh, EDEM3 / RFU, TMEM33 / Fold change vs veh, TMEM33 / RFU, WDR75 / Fold change vs veh, WDR75 / RFU, AHCTF1 / Fold change vs veh, AHCTF1 / RFU, TFRC / Fold change vs veh, TFRC / RFU, ZDHHC17 / Fold change vs veh, ZDHHC17 / RFU, NOM1 / Fold change vs veh, NOM1 / RFU, ARL8B / Fold change vs veh, ARL8B / RFU, ZBTB11 / Fold change vs veh, ZBTB11 / RFU, TAMM41 / Fold change vs veh, TAMM41 / RFU, KIAA1704 /// LOC100996395 / Fold change vs veh, KIAA1704 /// LOC100996395 / RFU, ING1 / Fold change vs veh, ING1 / RFU, TRMT61B / Fold change vs veh, TRMT61B / RFU, FUBP3 / Fold change vs veh, FUBP3 / RFU, TP53 / Fold change vs veh, TP53 / RFU, TNKS2 / Fold change vs veh, TNKS2 / RFU, ZFP14 / Fold change vs veh, ZFP14 / RFU, ACTR2 / Fold change vs veh, ACTR2 / RFU, PPP3R1 / Fold change vs veh, PPP3R1 / RFU, PIK3R1 / Fold change vs veh, PIK3R1 / RFU, HNRNPA1 / Fold change vs veh, HNRNPA1 / RFU, RNF170 / Fold change vs veh, RNF170 / RFU, ZNF28 / Fold change vs veh, ZNF28 / RFU, RNGTT / Fold change vs veh, RNGTT / RFU, OGT / Fold change vs veh, OGT / RFU, BRD1 / Fold change vs veh, BRD1 / RFU, MARS / Fold change vs veh, MARS / RFU, ZNF655 / Fold change vs veh, ZNF655 / RFU, FAHD1 / Fold change vs veh, FAHD1 / RFU, BDP1 / Fold change vs veh, BDP1 / RFU, LRRCC1 / Fold change vs veh, LRRCC1 / RFU, ARID1A / Fold change vs veh, ARID1A / RFU, ZNF146 / Fold change vs veh, ZNF146 / RFU, ZNF330 / Fold change vs veh, ZNF330 / RFU, GPN3 / Fold change vs veh, GPN3 / RFU, C9orf123 / Fold change vs veh, C9orf123 / RFU, N4BP2L2 / Fold change vs veh, N4BP2L2 / RFU, ARFIP1 / Fold change vs veh, ARFIP1 / RFU, FAM179B / Fold change vs veh, FAM179B / RFU, BCL10 / Fold change vs veh, BCL10 / RFU, UHRF1BP1L / Fold change vs veh, UHRF1BP1L / RFU, BET1 / Fold change vs veh, BET1 / RFU, CNOT2 / Fold change vs veh, CNOT2 / RFU, ZNF268 / Fold change vs veh, ZNF268 / Fold change vs veh, ZNF507 / RFU, DGCR2 / Fold change vs veh, DGCR2 / RFU, WDSUB1 / Fold change vs veh, WDSUB1 / Fold change vs veh, HSP90B1 /// MIR3652 / RFU, ADSS / Fold change vs veh, ADSS / RFU, GK / Fold change vs veh, GK / RFU, ZNF148 / Fold change vs veh, ZNF148 / RFU, TAF9 / Fold change vs veh, TAF9 / RFU, SLC1A5 / Fold change vs veh, SLC1A5 / RFU, SLMO2 / Fold change vs veh, SLMO2 / RFU, ABCC4 / Fold change vs veh, ABCC4 / RFU, LOC101060439 /// RAP1B / Fold change vs veh, LOC101060439 /// RAP1B / RFU, RFX7 / Fold change vs veh, RFX7 / RFU, GTPBP10 / Fold change vs veh, GTPBP10 / RFU, CNEP1R1 / Fold change vs veh, CNEP1R1 / RFU, BIVM-ERCC5 /// ERCC5 / Fold change vs veh, BIVM-ERCC5 /// ERCC5 / RFU, ILF3 / Fold change vs veh, ILF3 / RFU 11762660_at / Fold change /veh 11762660_at / RFU VCAN (11757783_s_at) / Fold change /veh VCAN (11757783_s_at) / RFU DDX43 (11728927_at) / Fold change /veh DDX43 (11728927_at) / RFU KRT8 (11758188_x_at) / Fold change /veh KRT8 (11758188_x_at) / RFU NKD1 (11759106_at) / Fold change /veh NKD1 (11759106_at) / RFU SRD5A1 (11742802_a_at) / Fold change /veh SRD5A1 (11742802_a_at) / RFU TPSAB1 /// TPSB2 (11721975_s_at) / Fold change /veh TPSAB1 /// TPSB2 (11721975_s_at) / RFU GSTM3 (11746129_a_at) / Fold change /veh GSTM3 (11746129_a_at) / RFU IL23R (11737362_x_at) / Fold change /veh IL23R (11737362_x_at) / RFU TMEM51 (11727254_a_at) / Fold change /veh TMEM51 (11727254_a_at) / RFU PIWIL2 (11732686_x_at) / Fold change /veh PIWIL2 (11732686_x_at) / RFU ORM1 (11744905_x_at) / Fold change /veh ORM1 (11744905_x_at) / RFU CCDC152 (11743942_at) / Fold change /veh CCDC152 (11743942_at) / RFU ECM1 (11717891_a_at) / Fold change /veh ECM1 (11717891_a_at) / RFU IL23R (11748794_a_at) / Fold change /veh IL23R (11748794_a_at) / RFU TNFAIP8L3 (11732012_x_at) / Fold change /veh TNFAIP8L3 (11732012_x_at) / RFU MBOAT4 (11741988_at) / Fold change /veh MBOAT4 (11741988_at) / RFU 11764193_at / Fold change /veh 11764193_at / RFU TMEM53 (11763286_at) / Fold change /veh TMEM53 (11763286_at) / RFU MAGEB2 (11727129_at) / Fold change /veh MAGEB2 (11727129_at) / RFU TMEM200A (11744735_a_at) / Fold change /veh TMEM200A (11744735_a_at) / RFU CCDC152 (11751479_a_at) / Fold change /veh CCDC152 (11751479_a_at) / RFU FAM211A (11726209_a_at) / Fold change /veh FAM211A (11726209_a_at) / RFU RGS16 (11746705_a_at) / Fold change /veh RGS16 (11746705_a_at) / RFU VCAN (11755009_s_at) / Fold change /veh VCAN (11755009_s_at) / RFU RHOB (11743442_s_at) / Fold change /veh RHOB (11743442_s_at) / RFU RGS16 (11720943_a_at) / Fold change /veh RGS16 (11720943_a_at) / RFU RGS16 (11720944_at) / Fold change /veh RGS16 (11720944_at) / RFU, VPS4B / Fold change vs veh, VPS4B / RFU, CREB1 / Fold change vs veh, CREB1 / RFU, DNAJC13 / Fold change vs veh, DNAJC13 / RFU, GNAQ / Fold change vs veh, GNAQ / RFU, CDK5R1 / Fold change vs veh, CDK5R1 / RFU, ZRANB3 / Fold change vs veh, ZRANB3 / RFU, CUL4A / Fold change vs veh, CUL4A / RFU, CCNY / Fold change vs veh, CCNY / RFU, UFL1 / Fold change vs veh, UFL1 / RFU, COG3 / Fold change vs veh, COG3 / RFU, DIAPH2 / Fold change vs veh, DIAPH2 / RFU, SKA2 / Fold change vs veh, SKA2 / RFU, AFF3 / Fold change vs veh, AFF3 / RFU, LMF1 / Fold change vs veh, LMF1 / RFU, IPO11 / Fold change vs veh, IPO11 / RFU, DFFB / Fold change vs veh, DFFB / RFU, FOXP1 / Fold change vs veh, FOXP1 / RFU, CARD8 / Fold change vs veh, CARD8 / RFU, STRN3 / Fold change vs veh, STRN3 / RFU, ADK / Fold change vs veh, ADK / RFU, RASSF2 / Fold change vs veh, RASSF2 / RFU, WIPF1 / Fold change vs veh, WIPF1 / RFU, LARP1B / Fold change vs veh, LARP1B / RFU, RASA1 / Fold change vs veh, RASA1 / RFU, RB1 / Fold change vs veh, RB1 / RFU, PPFIA1 / Fold change vs veh, PPFIA1 / RFU, MAT2A / Fold change vs veh, MAT2A / RFU, CCT5 / Fold change vs veh, CCT5 / RFU, WDR92 / Fold change vs veh, WDR92 / RFU, CUX1 / Fold change vs veh, CUX1 / RFU, TTC7A / Fold change vs veh, TTC7A / RFU, TMEM135 / Fold change vs veh, TMEM135 / RFU, DEPTOR / Fold change vs veh, DEPTOR / RFU, CPM / Fold change vs veh, CPM / RFU, DNAJB6 / Fold change vs veh, DNAJB6 / RFU, CACNA2D3 / Fold change vs veh, CACNA2D3 / RFU, DTX4 / Fold change vs veh, DTX4 / RFU, TFCP2 / Fold change vs veh, TFCP2 / RFU, GMCL1 /// GMCL1P1 / Fold change vs veh, GMCL1 /// GMCL1P1 / RFU, AEBP2 / Fold change vs veh, AEBP2 / RFU, SNHG1 /// SNORD22 /// SNORD25 /// SNORD26 /// SNORD27 /// SNORD28 /// SNORD29 /// SNORD31 / Fold change vs veh, SNHG1 /// SNORD22 /// SNORD25 /// SNORD26 /// SNORD27 /// SNORD28 /// SNORD29 /// SNORD31 / Fold change (Aza/veh), C12orf56 (ProbeSet 11735607_a_at) / Fold change (ACY-1035/veh), C12orf56 (ProbeSet 11735607_a_at) / Fold change (Aza/veh), FGFR1OP (ProbeSet 11751329_s_at) / Fold change (ACY-1035/veh), FGFR1OP (ProbeSet 11751329_s_at) / Fold change (Aza/veh), VPS36 (ProbeSet 11739960_a_at) / Fold change (ACY-1035/veh), VPS36 (ProbeSet 11739960_a_at) / RFU SYPL1 (11715823_x_at) / Fold change /veh SYPL1 (11715823_x_at) / RFU IGFBP7 (11715501_s_at) / Fold change /veh IGFBP7 (11715501_s_at) / RFU REEP3 (11722064_at) / Fold change /veh REEP3 (11722064_at) / RFU IGLL1 (11728026_x_at) / Fold change /veh IGLL1 (11728026_x_at): dose or concentration left out as unconfirmed
# Settings: ProbeSet 11726703_a_at; LIST B
smiles,measurement,value
Nc1ncn([C@@H]2O[C@H](CO)[C@@H](O)[C@H]2O)c(=O)n1 [azacitidine],"Fold change vs veh, BCL10",0.88
